Measured values as given in patent US4711879A, “Acylated sugar derivatives, processes for their manufacture, and their use” (Ciba-Geigy Corporation, priority 1984, dated 1987).

Tests used:
[1] = system: viruses; test: prophylaxis and treatment of virus infections in animals; type: in vivo, mice or guinea pigs; conditions: tests on animals
From the text: In these animal tests, animals, such as mice or guinea pigs, are infected with the most varied types of viruses at a dose that is lethal to all or the great majority of the untreated (control) animals, for example LD80-90, and the course of the infection is observed in the untreated control animals in comparison with animals treated with one of the above-mentioned compounds or a salt thereof before, simultaneously with or after infection.
These compounds of the formula I are effective in as low a dosage range as from 0.0001 mg/kg to 0.1 mg/kg in the above-mentioned test in mice.

[2] = test for pyrogenity in rabbits (European Pharmacopoeia); type: in vivo; conditions: 5 mg/kg i.v.
Method: The test for pyrogenity can be carried out in rabbits in accordance with the instructions given in the European Pharmacopoeia, Volume 2, pages 56 to 59 (1971). According to this test, for example N-propionyl- desmethylmuramyl-L-alanyl-D-isoglutaminyl-L-alanine-3-{2-[2-(2,6-dichlorophenylamino)-phenyl]-acetylamino}-2-hydroxypropylamide is not pyrogenic at a dose of 5 mg/kg i.v.

Compound | suitability for prophylaxis and treatment of virus infections [1] | pyrogenity [2]
(1α,β),4,6-tri-O-acetyl-N-propionyldesmethylmuramyl-L-alanyl-D- isoglutaminyl-L-alanine-3-[d-2-(6-methoxy-2-naphthyl]-propionylamino]-2-acetoxypropylamide [Example 21] | outstandingly suitable for the prophylaxis and treatment of virus infections | –
CCC(=O)N(C1O[C@H](CO)[C@@H](O)[C@H](OCC(=O)O)[C@H]1N)[C@@H](C)C(=O)N[C@H](CCC(=O)N[C@@H](C)C(=O)NCC(O)CNC(=O)Cc1ccccc1Nc1c(Cl)cccc1Cl)C(N)=O (stereo partly drawn) [Example 6, N-propionyldesmethylmuramyl-L-alanyl-D-isoglutaminyl-L-alanine-3-{2-[2-(2,6-dichlorophenylamino)-phenyl]acetylamino}-2-hydroxypropylamide] | – | not pyrogenic
